Results on eight compounds are retold here after PubChem BioAssay (NCI).

Some test systems named below: MCF7 breast; PC-3 prostate; MDA-MB-435; ACHN renal; A549 NSCLC; SNB-19 CNS; SW-620 colon; NCI-H522 lung; HL-60(TB) leukemia; A498 renal; SN12C renal; SK-OV-3 ovarian; MDA-N; SF-295 CNS; BT-549 breast; SK-MEL-28 melanoma; SR leukemia.
Experiment in all cases: NCI tumour cell line growth inhibition, 48 h

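Protocol summary: plate cells (96-well), add compound at 5 concentrations, incubate 48 h, interpolate endpoints linearly. TGI: total growth inhibition.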

Take `C=CCC1(OCc2ccccc2)C(=O)C(=O)OC1C1COC(C)(C)O1` (stereo unspecified): the TGI with MCF7 breast, in the assay with PC-3 prostate, in the assay with MDA-MB-435, in the assay on ACHN renal, with A549 NSCLC and with SNB-19 CNS was more than 100 µM each time. The TGI with SW-620 colon, in the assay on NCI-H522 lung, in the assay on HL-60(TB) leukemia, in the assay with A498 renal, in the assay on SN12C renal and with SK-OV-3 ovarian was more than 100 µM each time. The TGI with MDA-N, with SF-295 CNS, in the assay on BT-549 breast, in the assay on SK-MEL-28 melanoma and in the assay on SR leukemia was more than 100 µM in each case.
On to `CNC(=O)C1(N)c2ccccc2C=Cc2ccccc21`, for which the TGI with MCF7 breast, in the assay with PC-3 prostate, in the assay on MDA-MB-435, in the assay on ACHN renal, in the assay on A549 NSCLC and in the assay on SNB-19 CNS was more than 100 µM in each case. The TGI with SW-620 colon, with NCI-H522 lung, in the assay with HL-60(TB) leukemia, in the assay on A498 renal, in the assay on SN12C renal and in the assay with SK-OV-3 ovarian was more than 100 µM each time. Moreover, the TGI in the assay on MDA-N, in the assay with SF-295 CNS, in the assay with BT-549 breast, with SK-MEL-28 melanoma and with SR leukemia was more than 100 µM in each case.
On to `CC(=O)Nc1ccc(C(O)/C(=N/N)c2nc3ccc(Cl)cc3[nH]c2=O)cc1` (stereo unspecified), for which the TGI in the assay with MCF7 breast, with PC-3 prostate, in the assay on MDA-MB-435, in the assay with ACHN renal, in the assay with A549 NSCLC and with SNB-19 CNS was more than 100 µM each time. The TGI in the assay on SW-620 colon, with NCI-H522 lung, in the assay with HL-60(TB) leukemia, in the assay on A498 renal, with SN12C renal and with MDA-N was more than 100 µM in each case. Also, the TGI with SF-295 CNS, with BT-549 breast, in the assay on SK-MEL-28 melanoma and in the assay on SR leukemia was more than 100 µM throughout.
Turning to `Cc1cc(C)c(-n2[nH]c(=O)n(C)c2=O)c(C)c1`, the TGI in the assay on MCF7 breast, with PC-3 prostate, in the assay with MDA-MB-435, in the assay with A549 NSCLC, in the assay with SNB-19 CNS and in the assay with SW-620 colon was more than 100 µM in each case. The TGI in the assay with NCI-H522 lung, in the assay with HL-60(TB) leukemia, in the assay with A498 renal, in the assay on SN12C renal, with SK-OV-3 ovarian and in the assay with MDA-N was more than 100 µM throughout. The TGI in the assay on BT-549 breast, in the assay on SK-MEL-28 melanoma and with SR leukemia was more than 100 µM each time.
As for `CC(C)(C)c1cc2c(OC/C=C/c3ccccc3)c(c1)Cc1cc(C(C#N)(OC/C=C/c3ccccc3)OC/C=C/c3ccccc3)cc(c1OC/C=C\c1ccccc1)Cc1cc(C(C)(C)C)cc(c1OC/C=C/c1ccccc1)Cc1cc(C(C#N)(OC/C=C\c3ccccc3)OC/C=C/c3ccccc3)cc(c1OC/C=C\c1ccccc1)C2` (stereo unspecified), the TGI with MCF7 breast, in the assay with PC-3 prostate, in the assay on MDA-MB-435, with ACHN renal, with A549 NSCLC and with SNB-19 CNS was more than 100 µM each time. In addition, the TGI in the assay on SW-620 colon, in the assay with NCI-H522 lung, in the assay with HL-60(TB) leukemia, in the assay on A498 renal, in the assay on SN12C renal and with SK-OV-3 ovarian was more than 100 µM throughout. Moreover, the TGI with MDA-N was more than 100 µM; with SF-295 CNS it was more than 100 µM; with BT-549 breast it was more than 100 µM; in the assay with SK-MEL-28 melanoma it was more than 100 µM; in the assay on SR leukemia, 49.3 µM.
As for `CN(C)c1ccc(C(Cc2ccccc2)C2NC(=S)NC2=O)cc1` (stereo unspecified), the TGI in the assay on MCF7 breast, in the assay on PC-3 prostate, with MDA-MB-435, with ACHN renal, in the assay with A549 NSCLC and in the assay on SNB-19 CNS was more than 100 µM in each case. Also, the TGI with SW-620 colon, with NCI-H522 lung, in the assay on HL-60(TB) leukemia, in the assay with A498 renal, in the assay on SN12C renal and in the assay on SK-OV-3 ovarian was more than 100 µM each time. Moreover, the TGI with MDA-N, with SF-295 CNS, in the assay on BT-549 breast, with SK-MEL-28 melanoma and in the assay with SR leukemia was more than 100 µM each time.
Turning to `CSc1nc2c(c(=O)[nH]1)N=C(c1ccc([N+](=O)[O-])cc1)CC(c1ccccc1)N2` (stereo unspecified), the TGI in the assay on MCF7 breast is 57.6 µM; in the assay with PC-3 prostate it was more than 100 µM; with MDA-MB-435 it was more than 100 µM; with ACHN renal, more than 100 µM; with A549 NSCLC, more than 100 µM; in the assay with SNB-19 CNS, more than 100 µM. The TGI in the assay with SW-620 colon was 91.7 µM; with NCI-H522 lung, more than 100 µM; in the assay on HL-60(TB) leukemia, 39.7 µM; in the assay with A498 renal it was more than 100 µM; in the assay on SN12C renal, more than 100 µM; in the assay on MDA-N, more than 100 µM. For the same compound, the TGI in the assay on SF-295 CNS, with BT-549 breast, in the assay on SK-MEL-28 melanoma and with SR leukemia was more than 100 µM each time.
With `CC1=NC(=Cc2cccc(Cl)c2)C(=O)N1n1c(-c2ccccc2)nc2ccccc2c1=O`, the TGI in the assay on MCF7 breast is 55.3 µM; in the assay on PC-3 prostate, more than 100 µM; with MDA-MB-435, more than 100 µM; in the assay on ACHN renal, 52.7 µM; with A549 NSCLC it was more than 100 µM; in the assay with SNB-19 CNS, more than 100 µM. Further, the TGI in the assay with SW-620 colon was more than 100 µM; in the assay on NCI-H522 lung, 67.7 µM; with HL-60(TB) leukemia it was 61.6 µM; with A498 renal, 83.1 µM; with SN12C renal it was more than 100 µM; with SK-OV-3 ovarian it was more than 100 µM. In addition, the TGI with MDA-N is more than 100 µM; with SF-295 CNS, more than 100 µM; in the assay with BT-549 breast, more than 100 µM; in the assay with SR leukemia it was 63.5 µM.
